Experimental data as given in PubChem BioAssay (NCI).
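Dose response: 5 concentrations. Exposure: 48 h. Format: 96-well plates. Endpoint: linear interpolation; highest concentration if not reached. The concentration for full growth arrest is given as TGI.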

Tests used:
Assay in all cases: NCI-60 cell line screen, 48 h
ACHN renal = test system: ACHN renal
CAKI-1 renal = test system: CAKI-1 renal
SK-MEL-2 melanoma = test system: SK-MEL-2 melanoma
COLO 205 colon = test system: COLO 205 colon
UACC-62 melanoma = test system: UACC-62 melanoma
K-562 leukemia = test system: K-562 leukemia
RPMI-8226 leukemia = test system: RPMI-8226 leukemia
IGROV1 ovarian = test system: IGROV1 ovarian
HS 578T breast = test system: HS 578T breast
A498 renal = test system: A498 renal
786-0 renal = test system: 786-0 renal
MOLT-4 leukemia = test system: MOLT-4 leukemia
MDA-MB-231 breast = test system: MDA-MB-231 breast
MDA-MB-435 = test system: MDA-MB-435
U251 CNS = test system: U251 CNS
SF-539 CNS = test system: SF-539 CNS
CCRF-CEM leukemia = test system: CCRF-CEM leukemia

| SMILES | TGI (ACHN renal) [µM] | TGI (CAKI-1 renal) [µM] | TGI (SK-MEL-2 melanoma) [µM] | TGI (COLO 205 colon) [µM] | TGI (UACC-62 melanoma) [µM] | TGI (K-562 leukemia) [µM] | TGI (RPMI-8226 leukemia) [µM] | TGI (IGROV1 ovarian) [µM] | TGI (HS 578T breast) [µM] | TGI (A498 renal) [µM] | TGI (786-0 renal) [µM] | TGI (MOLT-4 leukemia) [µM] | TGI (MDA-MB-231 breast) [µM] | TGI (MDA-MB-435) [µM] | TGI (U251 CNS) [µM] | TGI (SF-539 CNS) [µM] | TGI (CCRF-CEM leukemia) [µM] |
| --- | --- | --- | --- | --- | --- | --- | --- | --- | --- | --- | --- | --- | --- | --- | --- | --- | --- |
| CC(C)(C)OC(=O)CCC1NC(=O)[C@@H]2Cc3c([nH]c4ccccc34)C(c3ccccc3)N2C1=O (some centres not stated) | 94.5 | 75.8 | 43.2 | 43.7 | 35.7 | > 100 | > 100 | 98.7 | 58.3 | > 100 | > 100 | > 100 | 42.1 | 52.1 | 43.3 |  |  |
| CCN1CCC(O)(/C=C/c2cccc(C)c2)C(C(=O)/C=C/c2cccc(C)c2)C1 (configuration not stated) | 2.93 | 4.31 | 5.56 | 4.67 | 3.54 | > 29.8 | 4.78 | 4.12 | 4.97 | 4.52 | 5.83 | > 21.5 | 11.5 | 4.61 | 3.31 | 5.4 |  |
| Cc1cc(N(C)C)ccc1N=Nc1ccc2ncccc2c1 | > 100 | > 100 | > 100 | > 100 | > 100 | > 100 | > 100 | > 100 | > 100 |  | > 100 | > 100 | > 100 | > 100 | > 100 | > 100 | > 100 |
| Clc1ccc(-c2cn3c(nc4ccccc43)c(/C=C/c3cccs3)n2)cc1 | > 100 |  | > 100 | > 100 | > 100 | > 100 | > 100 | > 100 | > 100 | > 100 | > 100 |  | > 100 | > 100 | > 100 | > 100 | > 100 |
| COc1cc(CN(C)N2C(=O)c3cccc4cc([N+](=O)[O-])cc(c34)C2=O)cc(OC)c1OC |  | > 100 | > 100 | > 100 | > 100 | > 100 | > 100 | > 100 | > 100 | > 100 |  | > 100 | > 100 | > 100 | > 100 |  | > 100 |
| COc1cc(C2SC(N)=Nc3c2c(C)nn3C(=O)Cc2ccccc2)cc(OC)c1OC (configuration not stated) | > 100 | > 100 |  | > 100 | > 100 | > 100 | > 100 | > 100 | > 100 | > 100 | > 100 | > 100 | > 100 | > 100 |  | > 100 | > 100 |
| CC1NC(=O)c2c(-c3ccccc3)nn(-c3ccccc3)c2NC1=O (configuration not stated) | > 100 | > 100 | > 100 | > 100 | > 100 | > 100 | > 100 | > 100 | > 100 | > 100 | > 100 | > 100 | > 100 | > 100 | > 100 |  | > 100 |
| NC(=S)Nc1c(S(N)(=O)=O)cc(S(N)(=O)=O)c(Cl)c1Cl |  | > 100 | > 100 | > 100 | > 100 | > 100 | > 100 | > 100 | > 100 |  | > 100 | > 100 | > 100 | > 100 | > 100 | > 100 | > 100 |
| CC(C)C1=CC23CCC4C(C)(C(=O)O)CCCC4(C)C2CC1C1C(=O)N(c2ccc(N4C(=O)C5C6CC7C8(C)CCCC(C)(C(=O)O)C8CCC7(C=C6C(C)C)C5C4=O)cc2)C(=O)C13 (configuration not stated) | 18.4 |  | 26.7 | 10.8 |  | > 100 | 80.3 |  | 30.2 | 24.8 | > 100 | 22 | 21.5 | 13 | 14.4 | 22.4 | 19.4 |
| CCOc1ccc(-n2c(=O)c3nn4c(=O)n(-c5ccc(OCC)cc5)c(=O)c4nn3c2=O)cc1 | > 100 | > 100 | > 100 | > 100 | > 100 | > 100 | > 100 | > 100 | > 100 | 67.9 | > 100 | > 100 | > 100 | > 100 | > 100 | > 100 |  |
| O=C(OC1C#CCSCC#C/C=C\1)c1cnc2ccccc2n1 (configuration not stated) | > 100 |  | > 100 | 30.8 | > 100 | 65.4 |  | > 100 | > 100 | > 100 | 26.3 |  | > 100 | > 100 | > 100 | > 100 | > 100 |
| Cc1ccc([N+](=O)[O-])cc1S(=O)(=O)Nc1ccc(C(=O)/C=C/c2ccccc2)cc1 | 28 | 55.4 | 38.2 | 44.9 | 28.1 | 29.7 | 37.1 | 39.6 | > 100 |  | 33.1 | 23 | 32.3 | 36.6 |  | > 100 | 69.9 |
| O=C(Nn1c(-c2ccccc2)nc2ccccc2c1=O)c1ccc([N+](=O)[O-])cc1 | > 100 |  |  | > 100 | > 100 | > 100 | > 100 | > 100 | > 100 | > 100 | > 100 | > 100 | > 100 | > 100 | > 100 | > 100 | > 100 |
| CC1(C)CC(=O)c2c(nc3c(ccc4ccccc43)c2-c2ccc(NC(=O)CCCCCCCCC(=O)Nc3ccc(-c4c5c(nc6c4ccc4ccccc46)CC(C)(C)CC5=O)cc3)cc2)C1 | > 100 | > 100 | > 100 | > 100 |  | > 100 | > 100 | > 100 | > 100 |  | > 100 | > 100 | > 100 | > 100 | > 100 | > 100 | > 100 |
| CN1CCC2(CC1)C(=O)N(NC(N)=O)C(=O)C2c1ccccc1 (configuration not stated) | > 100 | > 100 | > 100 | > 100 | > 100 | > 100 | > 100 | > 100 | > 100 |  | > 100 | > 100 | > 100 | > 100 | > 100 | > 100 | > 100 |
